Measured values reported in article PMC2910436 (Cell, 2010).

Assays:
[1] = biological target: BDH2 (DHRS6) (Mus musculus, UniProt Q8JZV9); assay: NADH formation at […] nm; assay type: biochemical; conditions: co-substrate 2,3-diDHBA
[2] = biological target: EntA (Escherichia coli, UniProt P15047); assay: NADH formation at […] nm; assay type: biochemical; conditions: co-substrate 2,3-diDHBA
Sequence of EntA (P15047 whole entry): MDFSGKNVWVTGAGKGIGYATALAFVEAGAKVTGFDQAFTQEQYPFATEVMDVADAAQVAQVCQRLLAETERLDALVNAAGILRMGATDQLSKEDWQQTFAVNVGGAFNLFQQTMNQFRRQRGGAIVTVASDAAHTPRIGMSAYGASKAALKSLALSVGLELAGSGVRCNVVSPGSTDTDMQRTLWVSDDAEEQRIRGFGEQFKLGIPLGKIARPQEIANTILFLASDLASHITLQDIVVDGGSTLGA

Sequence of BDH2 (DHRS6) (Q8JZV9 whole entry): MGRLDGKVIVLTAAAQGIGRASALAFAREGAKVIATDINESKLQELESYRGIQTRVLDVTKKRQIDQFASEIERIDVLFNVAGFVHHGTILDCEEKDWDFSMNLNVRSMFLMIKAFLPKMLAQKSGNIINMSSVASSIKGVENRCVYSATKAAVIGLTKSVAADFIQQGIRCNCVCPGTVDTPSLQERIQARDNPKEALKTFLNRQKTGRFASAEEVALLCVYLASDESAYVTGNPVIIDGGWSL

How did the “NADH formation at 340 nm” value [1] turn out when NC(=O)c1ccc[n+]([C@@H]2O[C@H](COP(=O)(O)OP(=O)(O)OC[C@H]3O[C@@H](n4cnc5c(N)ncnc54)[C@H](O)[C@@H]3O)[C@@H](O)[C@H]2O)c1 [NAD^+] was run?
The value was “wild-type EntA and BDH2 proteins, but not their mutant derivatives, catalyzed the conversion of NAD”.

And the “NADH formation at 340 nm” value [2]?
The value was “wild-type EntA and BDH2 proteins, but not their mutant derivatives, catalyzed the conversion of NAD”.
